{
  "source": "patent EP4692114A1",
  "about": "“CALCITONIN ANALOGUE, AND DERIVATIVE THEREOF AND USE THEREOF” (Hangzhou Sciwind Biosciences Co., Ltd., priority 2023, dated 2024)",
  "note": "*1 amine or outer side, *2 acyl side, *3 side chain or, on linkers, in order; H or OH if unused. Where a SMILES comes first, the peptide text is derived from it. [ ]: non-standard residue; d: D form. The star is where a group is joined. C22 diacid = O=C(O)CCCCCCCCCCCCCCCCCCCCC(=O)*; C20 diacid = O=C(O)CCCCCCCCCCCCCCCCCCC(=O)*; γGlu = O=C(O)[C@H](CCC(=O)[*:2])N[*:1]; βAsp = O=C(O)[C@H](CC(=O)[*:2])N[*:1]; AEEA = NCCOCCOCC(=O)O; Inp = O=C(O)C1CCNCC1",
  "data": [
    {"target": "T1, human amylin receptors (Homo sapiens, UniProt O60896+P30988)", "T1 sequence (P30988 25-474)": "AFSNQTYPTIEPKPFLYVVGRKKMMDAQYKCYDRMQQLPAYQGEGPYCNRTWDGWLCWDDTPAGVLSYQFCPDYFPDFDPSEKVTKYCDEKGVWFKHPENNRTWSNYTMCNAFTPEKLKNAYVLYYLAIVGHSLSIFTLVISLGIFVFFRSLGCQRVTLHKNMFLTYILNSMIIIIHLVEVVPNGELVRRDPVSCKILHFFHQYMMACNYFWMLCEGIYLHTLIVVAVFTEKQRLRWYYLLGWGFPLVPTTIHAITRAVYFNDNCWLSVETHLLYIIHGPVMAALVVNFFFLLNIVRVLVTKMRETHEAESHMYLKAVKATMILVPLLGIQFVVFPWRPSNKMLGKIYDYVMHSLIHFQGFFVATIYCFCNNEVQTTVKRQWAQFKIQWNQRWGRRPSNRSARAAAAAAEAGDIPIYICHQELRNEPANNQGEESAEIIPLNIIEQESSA", "T1 sequence (O60896 24-148 partner)": "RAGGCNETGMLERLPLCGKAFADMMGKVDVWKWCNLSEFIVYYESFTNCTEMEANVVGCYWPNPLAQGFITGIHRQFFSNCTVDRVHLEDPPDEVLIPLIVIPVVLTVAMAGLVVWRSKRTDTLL", "assay": "Luciferase assay of amylin (amylin receptor/CRE-luc cell line);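 further: agonist potency from luminescence of cAMP response element-driven luciferase, EC50 derived from a standard curve of signal versus compound concentration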", "assay_type": "cell-based", "conditions": "stably transfected amylin receptor/CRE-luc CHO cells (CHO-K1/Gal5/AMY3), 24 hours incubation, luciferase readout", "units": {"EC50": "nM"}, "values": [
      {"smiles": "CC(C)C[C@H](NC(=O)[C@H](CCCNC(=N)N)NC(=O)CNC(=O)[C@H](CC(C)C)NC(=O)[C@@H](NC(=O)[C@H](C)NC(=O)[C@@H](NC(=O)[C@H](CO)NC(=O)[C@H](CC(C)C)NC(=O)[C@H](CCC(N)=O)NC(=O)[C@H](CO)NC(=O)[C@H](C)NC(=O)COCCOCCNC(=O)COCCOCCNC(=O)[C@H](CCC(=O)O)NC(=O)CCCCCCCCCCCCCCCCCCC(=O)O)[C@@H](C)O)C(C)C)C(=O)N[C@@H](CO)C(=O)N[C@@H](CCC(=O)O)C(=O)N[C@@H](CCC(=O)O)C(=O)N[C@@H](CC(C)C)C(=O)N[C@@H](Cc1c[nH]cn1)C(=O)N[C@@H](CCCNC(=N)N)C(=O)N[C@@H](CC(C)C)C(=O)N[C@@H](CCC(N)=O)C(=O)N[C@@H](CC(=O)O)C(=O)N[C@@H](Cc1ccc(O)cc1)C(=O)N1CCC[C@H]1C(=O)N[C@@H](CCCNC(=N)N)C(=O)N[C@H](C(=O)N[C@@H](CC(=O)O)C(=O)N[C@H](C(=O)NCC(=O)N[C@@H](CO)C(=O)NCC(=O)N[C@@H](CO)C(=O)N1CCC[C@H]1C(N)=O)C(C)C)[C@@H](C)O", "note": "[M58] ({C20 diacid}-E[AEEA][AEEA]ASQLSTAVLGRLSEELHRLQDYPRTDVGSGSP-NH2)", "EC50": 0.017},
      {"smiles": "CC(C)C[C@H](NC(=O)[C@H](CCCNC(=N)N)NC(=O)CNC(=O)[C@H](CC(C)C)NC(=O)[C@@H](NC(=O)[C@H](C)NC(=O)[C@@H](NC(=O)[C@H](CO)NC(=O)[C@H](CC(C)C)NC(=O)[C@H](CCC(N)=O)NC(=O)[C@H](CO)NC(=O)[C@H](C)NC(=O)[C@H](CCC(=O)O)NC(=O)CCCCCCCCCCCCCCCCCCC(=O)O)[C@@H](C)O)C(C)C)C(=O)N[C@@H](CO)C(=O)N[C@@H](CCC(=O)O)C(=O)N[C@@H](CCC(=O)O)C(=O)N[C@@H](CC(C)C)C(=O)N[C@@H](Cc1c[nH]cn1)C(=O)N[C@@H](CCCNC(=N)N)C(=O)N[C@@H](CC(C)C)C(=O)N[C@@H](CCC(N)=O)C(=O)N[C@@H](CC(=O)O)C(=O)N[C@@H](Cc1ccc(O)cc1)C(=O)N1CCC[C@H]1C(=O)N[C@@H](CCCNC(=N)N)C(=O)N[C@H](C(=O)N[C@@H](CC(=O)O)C(=O)N[C@H](C(=O)NCC(=O)N[C@@H](CO)C(=O)NCC(=O)N[C@@H](CO)C(=O)N1CCC[C@H]1C(N)=O)C(C)C)[C@@H](C)O", "note": "[M52] ({C20 diacid}-EASQLSTAVLGRLSEELHRLQDYPRTDVGSGSP-NH2)", "EC50": 0.017},
      {"smiles": "CC(C)C[C@H](NC(=O)[C@H](CCCNC(=N)N)NC(=O)CNC(=O)[C@H](CC(C)C)NC(=O)[C@@H](NC(=O)[C@H](C)NC(=O)[C@@H](NC(=O)[C@H](CO)NC(=O)[C@H](CC(C)C)NC(=O)[C@H](CCC(N)=O)NC(=O)[C@H](CO)NC(=O)[C@H](C)NC(=O)C1CCN(C(=O)CCCCCCCCCCCCCCCCCCC(=O)O)CC1)[C@@H](C)O)C(C)C)C(=O)N[C@@H](CO)C(=O)N[C@@H](CCC(=O)O)C(=O)N[C@@H](CCC(=O)O)C(=O)N[C@@H](CC(C)C)C(=O)N[C@@H](Cc1c[nH]cn1)C(=O)N[C@@H](CCCNC(=N)N)C(=O)N[C@@H](CC(C)C)C(=O)N[C@@H](CCC(N)=O)C(=O)N[C@@H](CC(=O)O)C(=O)N[C@@H](Cc1ccc(O)cc1)C(=O)N1CCC[C@H]1C(=O)N[C@@H](CCCNC(=N)N)C(=O)N[C@H](C(=O)N[C@@H](CC(=O)O)C(=O)N[C@H](C(=O)NCC(=O)N[C@@H](CO)C(=O)NCC(=O)N[C@@H](CO)C(=O)N1CCC[C@H]1C(N)=O)C(C)C)[C@@H](C)O", "note": "[M56] ({C20 diacid-Inp}-ASQLSTAVLGRLSEELHRLQDYPRTDVGSGSP-NH2)", "EC50": 0.017},
      {"smiles": "CC(C)C[C@H](NC(=O)[C@H](CCCNC(=N)N)NC(=O)CNC(=O)[C@H](CC(C)C)NC(=O)[C@@H](NC(=O)[C@H](C)NC(=O)[C@@H](NC(=O)[C@H](CO)NC(=O)[C@H](CC(C)C)NC(=O)[C@H](CCC(N)=O)NC(=O)[C@H](CO)NC(=O)[C@H](C)NC(=O)COCCOCCNC(=O)COCCOCCNC(=O)[C@H](CC(=O)O)NC(=O)CCCCCCCCCCCCCCCCCCC(=O)O)[C@@H](C)O)C(C)C)C(=O)N[C@@H](CO)C(=O)N[C@@H](CCC(=O)O)C(=O)N[C@@H](CCC(=O)O)C(=O)N[C@@H](CC(C)C)C(=O)N[C@@H](Cc1c[nH]cn1)C(=O)N[C@@H](CCCNC(=N)N)C(=O)N[C@@H](CC(C)C)C(=O)N[C@@H](CCC(N)=O)C(=O)N[C@@H](CC(=O)O)C(=O)N[C@@H](Cc1ccc(O)cc1)C(=O)N1CCC[C@H]1C(=O)N[C@@H](CCCNC(=N)N)C(=O)N[C@H](C(=O)N[C@@H](CC(=O)O)C(=O)N[C@H](C(=O)NCC(=O)N[C@@H](CO)C(=O)NCC(=O)N[C@@H](CO)C(=O)N1CCC[C@H]1C(N)=O)C(C)C)[C@@H](C)O", "note": "[M60] ({C20 diacid}-D[AEEA][AEEA]ASQLSTAVLGRLSEELHRLQDYPRTDVGSGSP-NH2)", "EC50": 0.016},
      {"smiles": "CC(C)C[C@H](NC(=O)[C@H](CCCNC(=N)N)NC(=O)CNC(=O)[C@H](CC(C)C)NC(=O)[C@@H](NC(=O)[C@H](C)NC(=O)[C@@H](NC(=O)[C@H](CO)NC(=O)[C@H](CC(C)C)NC(=O)[C@H](CCC(N)=O)NC(=O)[C@H](CO)NC(=O)[C@H](C)NC(=O)COCCOCCNC(=O)COCCOCCNC(=O)CC[C@H](NC(=O)CCCCCCCCCCCCCCCCCCC(=O)O)C(=O)O)[C@@H](C)O)C(C)C)C(=O)N[C@@H](CO)C(=O)N[C@@H](CCC(=O)O)C(=O)N[C@@H](CCC(=O)O)C(=O)N[C@@H](CC(C)C)C(=O)N[C@@H](Cc1c[nH]cn1)C(=O)N[C@@H](CCCNC(=N)N)C(=O)N[C@@H](CC(C)C)C(=O)N[C@@H](CCC(N)=O)C(=O)N[C@@H](CC(=O)O)C(=O)N[C@@H](Cc1ccc(O)cc1)C(=O)N1CCC[C@H]1C(=O)N[C@@H](CCCNC(=N)N)C(=O)N[C@H](C(=O)N[C@@H](CC(=O)O)C(=O)N[C@H](C(=O)NCC(=O)N[C@@H](CO)C(=O)NCC(=O)N[C@@H](CO)C(=O)N1CCC[C@H]1C(N)=O)C(C)C)[C@@H](C)O", "note": "[M57] ({C20 diacid-γGlu-AEEA-AEEA}-ASQLSTAVLGRLSEELHRLQDYPRTDVGSGSP-NH2)", "EC50": 0.017},
      {"smiles": "CC(C)C[C@H](NC(=O)[C@H](CCCNC(=N)N)NC(=O)CNC(=O)[C@H](CC(C)C)NC(=O)[C@@H](NC(=O)[C@H](C)NC(=O)[C@@H](NC(=O)[C@H](CO)NC(=O)[C@H](CC(C)C)NC(=O)[C@H](CCC(N)=O)NC(=O)[C@H](CO)NC(=O)[C@H](C)NC(=O)COCCOCCNC(=O)COCCOCCNC(=O)C[C@H](NC(=O)CCCCCCCCCCCCCCCCCCC(=O)O)C(=O)O)[C@@H](C)O)C(C)C)C(=O)N[C@@H](CO)C(=O)N[C@@H](CCC(=O)O)C(=O)N[C@@H](CCC(=O)O)C(=O)N[C@@H](CC(C)C)C(=O)N[C@@H](Cc1c[nH]cn1)C(=O)N[C@@H](CCCNC(=N)N)C(=O)N[C@@H](CC(C)C)C(=O)N[C@@H](CCC(N)=O)C(=O)N[C@@H](CC(=O)O)C(=O)N[C@@H](Cc1ccc(O)cc1)C(=O)N1CCC[C@H]1C(=O)N[C@@H](CCCNC(=N)N)C(=O)N[C@H](C(=O)N[C@@H](CC(=O)O)C(=O)N[C@H](C(=O)NCC(=O)N[C@@H](CO)C(=O)NCC(=O)N[C@@H](CO)C(=O)N1CCC[C@H]1C(N)=O)C(C)C)[C@@H](C)O", "note": "[M59] ({C20 diacid-βAsp-AEEA-AEEA}-ASQLSTAVLGRLSEELHRLQDYPRTDVGSGSP-NH2)", "EC50": 0.017},
      {"smiles": "CC(C)C[C@H](NC(=O)[C@H](CCCNC(=N)N)NC(=O)CNC(=O)[C@H](CC(C)C)NC(=O)[C@@H](NC(=O)[C@H](C)NC(=O)[C@@H](NC(=O)[C@H](CO)NC(=O)[C@H](CC(C)C)NC(=O)[C@H](CCC(N)=O)NC(=O)[C@H](CO)NC(=O)[C@H](C)NC(=O)C[C@H](NC(=O)CCCCCCCCCCCCCCCCCCC(=O)O)C(=O)O)[C@@H](C)O)C(C)C)C(=O)N[C@@H](CO)C(=O)N[C@@H](CCC(=O)O)C(=O)N[C@@H](CCC(=O)O)C(=O)N[C@@H](CC(C)C)C(=O)N[C@@H](Cc1c[nH]cn1)C(=O)N[C@@H](CCCNC(=N)N)C(=O)N[C@@H](CC(C)C)C(=O)N[C@@H](CCC(N)=O)C(=O)N[C@@H](CC(=O)O)C(=O)N[C@@H](Cc1ccc(O)cc1)C(=O)N1CCC[C@H]1C(=O)N[C@@H](CCCNC(=N)N)C(=O)N[C@H](C(=O)N[C@@H](CC(=O)O)C(=O)N[C@H](C(=O)NCC(=O)N[C@@H](CO)C(=O)NCC(=O)N[C@@H](CO)C(=O)N1CCC[C@H]1C(N)=O)C(C)C)[C@@H](C)O", "note": "[M53] ({C20 diacid-βAsp}-ASQLSTAVLGRLSEELHRLQDYPRTDVGSGSP-NH2)", "EC50": 0.017},
      {"smiles": "CC(C)C[C@H](NC(=O)[C@H](CCCNC(=N)N)NC(=O)CNC(=O)[C@H](CC(C)C)NC(=O)[C@@H](NC(=O)[C@H](C)NC(=O)[C@@H](NC(=O)[C@H](CO)NC(=O)[C@H](CC(C)C)NC(=O)[C@H](CCC(N)=O)NC(=O)[C@H](CO)NC(=O)[C@H](C)NC(=O)CC[C@H](NC(=O)CCCCCCCCCCCCCCCCCCCCC(=O)O)C(=O)O)[C@@H](C)O)C(C)C)C(=O)N[C@@H](CO)C(=O)N[C@@H](CCC(=O)O)C(=O)N[C@@H](CCC(=O)O)C(=O)N[C@@H](CC(C)C)C(=O)N[C@@H](Cc1c[nH]cn1)C(=O)N[C@@H](CCCNC(=N)N)C(=O)N[C@@H](CC(C)C)C(=O)N[C@@H](CCC(N)=O)C(=O)N[C@@H](CC(=O)O)C(=O)N[C@@H](Cc1ccc(O)cc1)C(=O)N1CCC[C@H]1C(=O)N[C@@H](CCCNC(=N)N)C(=O)N[C@H](C(=O)N[C@@H](CC(=O)O)C(=O)N[C@H](C(=O)NCC(=O)N[C@@H](CO)C(=O)NCC(=O)N[C@@H](CO)C(=O)N1CCC[C@H]1C(N)=O)C(C)C)[C@@H](C)O", "note": "[M65] ({C22 diacid-γGlu}-ASQLSTAVLGRLSEELHRLQDYPRTDVGSGSP-NH2)", "EC50": 0.017}
    ]}
  ]
}
